Source: patent publication US10030020B2, “Spirocycle compounds and methods of making and using same” (Abide Therapeutics, Inc., priority 2016, dated 2018)
Read-outs that look alike come from different tables or passages of the source.

Columns and labels:
MAGL [1] = biological target: MAGL (Homo sapiens (Human), UniProt Q99685); experiment: In vitro competitive activity-based protein profiling (human prefrontal cortex or cell membrane fractions; hMAGL expressed in HEK293T cells); format: biochemical
Method: In Vitro Competitive Activity-Based Protein Profiling (Human).
Proteomes (human prefrontal cortex or cell membrane fractions) (50 μL, 1.0-2.0 mg/mL total protein concentration) were preincubated with varying concentrations of inhibitors at 37° C. After 30 min, FP—Rh or JW912 (1.0 μL, 50 μM in DMSO) was added and the mixture was incubated for another 30 min at room temperature. Reactions were quenched with SDS loading buffer (15 μL-4×) and run on SDS-PAGE.
Recombinant Expression of Human MAGL in HEK293T Cells.
Cell lysates were diluted with mock proteomes for use in competitive ABPP experiments.

MAGL [2] = biological target: T1, MAGL (Mus musculus (Mouse), UniProt O35678); experiment: Mouse brain proteomes from inhibitor treated mice (oral gavage, sacrificed 4 h after administration, ABPP analysis); format: in vivo, mouse (C57Bl/6J); conditions: 5 mg/kg oral gavage
Summary of the method: (§1)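 Compounds were given by oral gavage to wild-type C57Bl/6J mice in a vehicle such as PEG400/Ethanol/PBS (7/2/1). Animals were sacrificed 4 h after dosing, and brain proteomes were prepared and analyzed by established ABPP methods. Values are % inhibition at 5 mg/kg.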

MAGL [3] = biological target: T1, MAGL; experiment: In vitro competitive activity-based protein profiling (mouse brain membrane fraction or cell lysates), MAGL band; format: biochemical; conditions: for inhibition at 1 µM: read-out: MAGL % Inh 1 μM (mouse); for IC50: competitive ABPP
Method: In Vitro Competitive Activity-Based Protein Profiling.
Proteomes (mouse brain membrane fraction or cell lysates) (50 μL, 1.0 mg/mL total protein concentration) were preincubated with varying concentrations of inhibitors at 37° C. After 30 min, FP—Rh (1.0 μL, 50 μM in DMSO) was added and the mixture was incubated for another 30 min at 37° C. Reactions were quenched with SDS loading buffer (50 μL-4×) and run on SDS-PAGE.

FAAH [4] = biological target: T2, FAAH (Mus musculus (Mouse), UniProt O08914); experiment: Mouse brain proteomes from inhibitor treated mice (oral gavage, sacrificed 4 h after administration, ABPP analysis), FAAH; format: in vivo, mouse (C57Bl/6J); conditions: 5 mg/kg oral gavage
Summary of the method: as §1

FAAH [5] = biological target: T2, FAAH; experiment: In vitro competitive activity-based protein profiling (mouse brain membrane fraction or cell lysates), FAAH band; format: biochemical; conditions: for inhibition at 1 µM: read-out: FAAH % Inh 1 μM (mouse); for IC50: competitive ABPP
Summary of the method: (§2)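 Residual hydrolase activity was measured as gel band fluorescence after FP-Rh labelling (30 min, 37° C) of proteomes pretreated 30 min at 37° C with inhibitor.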

ABHD6 [6] = biological target: T3, ABHD6 (Mus musculus (Mouse), UniProt Q8R2Y0); experiment: In vitro competitive activity-based protein profiling (mouse brain membrane fraction or cell lysates), ABHD6 band; format: biochemical; conditions: for inhibition at 1 µM: read-out: ABHD6 % Inh 1 μM (mouse); for IC50: competitive ABPP
Summary of the method: as §2

ABHD6 [7] = biological target: T3, ABHD6; experiment: Mouse brain proteomes from inhibitor treated mice (oral gavage, sacrificed 4 h after administration, ABPP analysis), ABHD6; format: in vivo, mouse (C57Bl/6J); conditions: 5 mg/kg oral gavage
Summary of the method: as §1

[8] = human proteome, competitive ABPP

T2 sequence (O08914 whole entry): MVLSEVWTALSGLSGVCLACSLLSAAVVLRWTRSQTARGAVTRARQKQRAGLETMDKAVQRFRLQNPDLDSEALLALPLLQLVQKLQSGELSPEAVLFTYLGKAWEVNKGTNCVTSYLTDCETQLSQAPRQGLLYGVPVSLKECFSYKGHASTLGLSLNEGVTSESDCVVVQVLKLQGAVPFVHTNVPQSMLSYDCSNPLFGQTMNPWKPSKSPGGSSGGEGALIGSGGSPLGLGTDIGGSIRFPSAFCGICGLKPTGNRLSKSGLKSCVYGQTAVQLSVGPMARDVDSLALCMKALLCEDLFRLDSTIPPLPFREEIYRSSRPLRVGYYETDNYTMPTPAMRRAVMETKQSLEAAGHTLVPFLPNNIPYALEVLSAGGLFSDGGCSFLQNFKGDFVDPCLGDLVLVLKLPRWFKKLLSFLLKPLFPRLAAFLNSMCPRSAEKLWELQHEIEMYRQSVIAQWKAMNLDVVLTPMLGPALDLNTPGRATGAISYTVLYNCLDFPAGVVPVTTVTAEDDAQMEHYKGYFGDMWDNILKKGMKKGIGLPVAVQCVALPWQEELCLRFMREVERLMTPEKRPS
T1 sequence (O35678 whole entry): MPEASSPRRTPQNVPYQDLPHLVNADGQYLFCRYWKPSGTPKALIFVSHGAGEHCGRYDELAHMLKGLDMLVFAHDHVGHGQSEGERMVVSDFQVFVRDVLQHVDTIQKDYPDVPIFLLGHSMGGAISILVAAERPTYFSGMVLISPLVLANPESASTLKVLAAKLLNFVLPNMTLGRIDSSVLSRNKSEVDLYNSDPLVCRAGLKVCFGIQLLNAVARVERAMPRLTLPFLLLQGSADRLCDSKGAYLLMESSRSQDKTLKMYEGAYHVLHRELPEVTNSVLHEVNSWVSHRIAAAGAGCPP
MAGL (Homo sapiens (Human), UniProt Q99685), sequence (Q99685 whole entry): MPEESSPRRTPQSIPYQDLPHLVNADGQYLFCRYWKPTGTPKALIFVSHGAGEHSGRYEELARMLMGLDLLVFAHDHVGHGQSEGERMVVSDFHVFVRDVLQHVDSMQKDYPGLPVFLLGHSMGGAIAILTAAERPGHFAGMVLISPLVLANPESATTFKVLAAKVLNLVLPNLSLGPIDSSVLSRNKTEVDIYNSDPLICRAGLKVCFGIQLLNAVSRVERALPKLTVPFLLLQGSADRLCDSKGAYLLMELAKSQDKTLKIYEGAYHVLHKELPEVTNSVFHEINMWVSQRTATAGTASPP
T3 sequence (Q8R2Y0 whole entry): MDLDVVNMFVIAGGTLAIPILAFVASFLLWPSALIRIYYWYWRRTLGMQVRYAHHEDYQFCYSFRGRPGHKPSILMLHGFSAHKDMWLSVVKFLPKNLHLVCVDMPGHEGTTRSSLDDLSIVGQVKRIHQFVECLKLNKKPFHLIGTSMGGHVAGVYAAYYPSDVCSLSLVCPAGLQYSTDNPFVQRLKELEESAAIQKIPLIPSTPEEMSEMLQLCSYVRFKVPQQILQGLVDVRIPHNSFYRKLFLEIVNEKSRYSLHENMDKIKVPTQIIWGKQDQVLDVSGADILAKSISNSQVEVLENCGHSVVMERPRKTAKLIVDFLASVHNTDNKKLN

Structure (SMILES)	IC50 (MAGL [1]; human) [nM]	inhibition at 1 µM (ABHD6 [6]; mouse) [%]	inhibition at 1 µM (MAGL [3]; 1 μM, mouse) [%]	inhibition at 1 µM (FAAH [5]; 1 μM, mouse) [%]	other results
CN(C)C(=O)C1CCN(c2cc(C(F)(F)F)ccc2CN2CCCC23CCN(C(=O)OC(C(F)(F)F)C(F)(F)F)CC3)CC1 [Example 16, 1,1,1,3,3,3-Hexafluoropropan-2-yl 1-(2-(4-(dimethylcarbamoyl)piperidin-1-yl)-4-(trifluoromethyl)benzyl)-1,8-diazaspiro[4.5]decane-8-carboxylate]					IC50 (MAGL [1]; [8]): < 100 nM; MAGL % Inh 5 mg/kg (mouse) (MAGL [2]): # (# is <25%); inhibition at 1 µM (MAGL [3]; 1 μM, mouse proteome): > 75%; IC50 (MAGL [3]; mouse proteome): < 100 nM; FAAH % Inh 5 mg/kg (mouse) (FAAH [4]): # (# is <25%); inhibition at 1 µM (FAAH [5]; 1 μM, mouse proteome): < 25%; IC50 (FAAH [5]; mouse proteome): > 1000 nM; inhibition at 1 µM (ABHD6 [6]; mouse proteome): < 25%; IC50 (ABHD6 [6]; mouse proteome): > 1000 nM; ABHD6 % Inh 5 mg/kg (mouse) (ABHD6 [7]): # (# is <25%)
O=C(OC(C(F)(F)F)C(F)(F)F)N1CCC2(CCCN2Cc2ccc(C(F)(F)F)cc2N2CCN(CCF)CC2)CC1 [Example 20, 1,1,1,3,3,3-Hexafluoropropan-2-yl 1-(2-(4-(2-fluoroethyl)piperazin-1-yl)-4-(trifluoromethyl)benzyl)-1,8-diazaspiro[4.5]decane-8-carboxylate]					IC50 (MAGL [1]; [8]): < 100 nM; MAGL % Inh 5 mg/kg (mouse) (MAGL [2]): ## (## is equal to or greater than 25% but less than 75%); IC50 (MAGL [3]; mouse proteome): < 100 nM; FAAH % Inh 5 mg/kg (mouse) (FAAH [4]): # (# is <25%); IC50 (FAAH [5]; mouse proteome): > 1000 nM; IC50 (ABHD6 [6]; mouse proteome): > 1000 nM; ABHD6 % Inh 5 mg/kg (mouse) (ABHD6 [7]): # (# is <25%)
CN1CCCc2ccc(CN3CCCC34CCN(C(=O)OC(C(F)(F)F)C(F)(F)F)CC4)cc21 [Example 68, 1,1,1,3,3,3-Hexafluoropropan-2-yl 1-((1-methyl-1,2,3,4-tetrahydroquinolin-7-yl)methyl)-1,8-diazaspiro[4.5]decane-8-carboxylate]					IC50 (MAGL [1]; [8]): < 100 nM; MAGL % Inh 5 mg/kg (mouse) (MAGL [2]): ### (### is ≥75%); inhibition at 1 µM (MAGL [3]; 1 μM, mouse proteome): > 75%; IC50 (MAGL [3]; mouse proteome): < 100 nM; FAAH % Inh 5 mg/kg (mouse) (FAAH [4]): # (# is <25%); inhibition at 1 µM (FAAH [5]; 1 μM, mouse proteome): < 25%; IC50 (FAAH [5]; mouse proteome): > 1000 nM; inhibition at 1 µM (ABHD6 [6]; mouse proteome): < 25%; IC50 (ABHD6 [6]; mouse proteome): > 1000 nM; ABHD6 % Inh 5 mg/kg (mouse) (ABHD6 [7]): # (# is <25%)
O=C(O)[C@@H]1CCCN(c2cc(CN3CCC4(CCN(C(=O)OC(C(F)(F)F)C(F)(F)F)CC4)C3)cc(C(F)(F)F)c2)C1 [Example 222]	< 100	< 25			MAGL % Inh 1 μM (mouse) (MAGL [3]; 1 μM, mouse): ### (### is ≥75%); FAAH % Inh 1 μM (mouse) (FAAH [5]; 1 μM, mouse): # (# is <25%)
O=C(O)C1CCCCN1c1cc(CN2CCC3(CCN(C(=O)OC(C(F)(F)F)C(F)(F)F)CC3)C2)cc(C(F)(F)F)c1 (centres unmarked) [Example 225]	< 100	< 25	> 75	< 25	
O=C(O)C1CCN(c2ccc(CN3CCC4(CCN(C(=O)OC(C(F)(F)F)C(F)(F)F)CC4)C3)cc2C(F)(F)F)CC1 [Example 228]	< 100	≥ 75	> 75	< 25	
O=C(O)C1CCN(c2cc(F)cc(CN3CCC4(CCN(C(=O)OC(C(F)(F)F)C(F)(F)F)CC4)C3)c2)CC1 [Example 233]	< 100	25 to 75	> 75	< 25	
O=C(O)C1CCN(c2cc(CN3CCC4(CCN(C(=O)OC(C(F)(F)F)C(F)(F)F)CC4)C3)ccc2C(F)(F)F)CC1 [Example 234]	< 100	≥ 75	> 75	< 25	
O=C(O)C1CCN(Cc2cc(C(F)(F)F)ccc2CN2CCC3(CCN(C(=O)OC(C(F)(F)F)C(F)(F)F)CC3)C2)CC1 [Example 239]	< 100	< 25	> 75	< 25	
O=C(O)C1CCN(c2cc(S(F)(F)(F)(F)F)ccc2CN2CCC3(CCN(C(=O)OC(C(F)(F)F)C(F)(F)F)CC3)C2)CC1 [Example 241]	< 100	≥ 75	> 75	< 25	
O=C(O)C1CCN(Cc2ccc(CN3CCC4(CCN(C(=O)OC(C(F)(F)F)C(F)(F)F)CC4)C3)cc2C(F)(F)F)CC1 [Example 247]	< 100	≥ 75	> 75	< 25	
O=C(O)c1cc(C(F)(F)F)ccc1CN1CCCC12CCN(C(=O)OC(C(F)(F)F)C(F)(F)F)CC2 [Example 261]	< 100	< 25	25 to 75	< 25	
O=C(O)C1COCCN1c1cc(CN2CCC3(CCN(C(=O)OC(C(F)(F)F)C(F)(F)F)CC3)C2)cc(C(F)(F)F)c1 (centres unmarked) [Example 278]	< 100	≥ 75	> 75	< 25	
O=C(O)C1CCN(c2cc(CN3CCC4(CCN(C(=O)OC(C(F)(F)F)C(F)(F)F)CC4)C3)cc(C(F)(F)F)c2)CC1 [Example 279]	< 100	≥ 75	> 75	< 25	
C#Cc1ccc(CN2CCCC23CCN(C(=O)OC(C(F)(F)F)C(F)(F)F)CC3)cc1 [Example 280]	< 100	< 25	> 75	< 25	

Continued, in another order:

IC50 (MAGL [1]; human) [nM]	inhibition at 1 µM (ABHD6 [6]; mouse) [%]	inhibition at 1 µM (MAGL [3]; 1 μM, mouse) [%]	inhibition at 1 µM (FAAH [5]; 1 μM, mouse) [%]	Structure (SMILES)	other results
< 100	< 25	> 75	< 25	CC1(C(=O)O)CCCN(c2cc(CN3CCC4(CCN(C(=O)OC(C(F)(F)F)C(F)(F)F)CC4)C3)cc(C(F)(F)F)c2)C1 (centres unmarked) [Example 223]	
< 100	≥ 75	> 75	< 25	CC1(C(=O)O)CCN(c2cc(CN3CCC4(CCN(C(=O)OC(C(F)(F)F)C(F)(F)F)CC4)C3)cc(C(F)(F)F)c2)C1 (centres unmarked) [Example 229]	
< 100	25 to 75	> 75	< 25	O=C(O)C1CCN(c2cc(Cl)cc(CN3CCC4(CCN(C(=O)OC(C(F)(F)F)C(F)(F)F)CC4)C3)c2)CC1 [Example 232]	
< 100	≥ 75	> 75	< 25	O=C(O)C1CCN(Cc2cc(CN3CCC4(CCN(C(=O)OC(C(F)(F)F)C(F)(F)F)CC4)C3)cc(C(F)(F)F)c2)CC1 [Example 245]	
< 100	≥ 75	> 75	< 25	CC1(C(=O)O)CN(c2cc(CN3CCC4(CCN(C(=O)OC(C(F)(F)F)C(F)(F)F)CC4)C3)cc(C(F)(F)F)c2)CCO1 (centres unmarked) [Example 252]	
> 1000	≥ 75	> 75	< 25	O=C(O)c1ccc(CN2CCC3(CCN(C(=O)OC(C(F)(F)F)C(F)(F)F)CC3)C2)cc1C(F)(F)F [Example 258]	
< 100	25 to 75	> 75	< 25	O=C(O)C1CCN(c2cc(CN3CCCC34CCN(C(=O)OC(C(F)(F)F)C(F)(F)F)CC4)cc(S(F)(F)(F)(F)F)c2)CC1 [Example 263]	
< 100	≥ 75	> 75	< 25	O=C(O)C1CCN(c2cc(CN3CCC4(CCN(C(=O)OC(C(F)(F)F)C(F)(F)F)CC4)C3)cc(S(F)(F)(F)(F)F)c2)CC1 [Example 264]	
< 100	≥ 75	> 75	< 25	O=C(O)c1ccc(CN2CCCC23CCN(C(=O)OC(C(F)(F)F)C(F)(F)F)CC3)c(C(F)(F)F)c1 [Example 265]	
< 100	25 to 75	> 75	< 25	NC(=O)C1CCN(C(=O)c2cc(C(F)(F)F)ccc2CN2CCCC23CCN(C(=O)OC(C(F)(F)F)C(F)(F)F)CC3)CC1 [Example 276]	
< 100	≥ 75	> 75	< 25	O=C(O)C1CN(c2cc(CN3CCC4(CCN(C(=O)OC(C(F)(F)F)C(F)(F)F)CC4)C3)cc(C(F)(F)F)c2)CCO1 (centres unmarked) [Example 277]	
